pIC50, pKi: −log10 of the molar value.
Legend:
[1] = target: Apoptosis regulator Bcl-2 (Homo sapiens, UniProt P10415); experiment: Inhibition of Bcl-2 (unknown origin) using 5-FAM-Bid-BH3 as substrate preincubated for 30 mins before substrate addition measured after 20 mins by fluorescence polarization technique
[2] = target: Induced myeloid leukemia cell differentiation protein Mcl-1 (Homo sapiens, UniProt Q07820); experiment: Inhibition of Mcl-1 (unknown origin) using 5-FAM-Bid-BH3 as substrate preincubated for 30 mins before substrate addition measured after 20 mins by fluorescence polarization technique
K562 = experiment: cells; conditions: Homo sapiens, K562, 48 h
cells = conditions: Homo sapiens, PC-3, 48 h
Bcl-2-like protein 1 = Bcl-2-like protein 1 (Homo sapiens, UniProt Q07817); experiment: Inhibition of Bcl-XL (unknown origin) using 5-FAM-Bid-BH3 as substrate preincubated for 30 mins before substrate addition measured after 20 mins by fluorescence polarization technique; conditions: for pKi: read-out: Ki
MDA-MB-231 = experiment: Antiproliferative activity against human MDA-MB-231 cells after 48 hrs by MTT assay; assay type: functional, cell-based; conditions: MDA-MB-231, 48 h

Bcl-2-like protein 1, sequence (Q07817 whole entry): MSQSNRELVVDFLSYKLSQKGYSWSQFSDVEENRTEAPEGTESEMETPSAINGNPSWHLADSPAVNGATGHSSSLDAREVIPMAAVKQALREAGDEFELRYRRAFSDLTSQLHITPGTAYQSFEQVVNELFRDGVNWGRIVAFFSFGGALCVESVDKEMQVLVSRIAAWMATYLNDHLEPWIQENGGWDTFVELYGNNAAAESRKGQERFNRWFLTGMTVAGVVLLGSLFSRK
Induced myeloid leukemia cell differentiation protein Mcl-1, sequence (Q07820 whole entry): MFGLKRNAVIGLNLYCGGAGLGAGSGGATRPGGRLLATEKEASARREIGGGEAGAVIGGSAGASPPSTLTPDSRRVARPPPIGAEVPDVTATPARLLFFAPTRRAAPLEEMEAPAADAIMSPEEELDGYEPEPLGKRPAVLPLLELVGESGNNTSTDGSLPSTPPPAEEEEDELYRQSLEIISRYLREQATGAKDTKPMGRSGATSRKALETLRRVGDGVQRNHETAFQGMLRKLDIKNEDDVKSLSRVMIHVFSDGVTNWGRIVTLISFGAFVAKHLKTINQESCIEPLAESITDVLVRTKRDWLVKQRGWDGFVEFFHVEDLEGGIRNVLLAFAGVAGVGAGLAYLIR
Apoptosis regulator Bcl-2, sequence (P10415 whole entry): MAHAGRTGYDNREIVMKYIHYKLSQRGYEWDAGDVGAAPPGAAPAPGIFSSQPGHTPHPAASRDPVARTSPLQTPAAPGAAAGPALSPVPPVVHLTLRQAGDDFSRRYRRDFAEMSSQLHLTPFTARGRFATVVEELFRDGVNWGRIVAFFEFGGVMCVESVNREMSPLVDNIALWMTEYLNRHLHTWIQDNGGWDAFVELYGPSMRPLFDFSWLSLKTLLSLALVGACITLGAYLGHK

SMILES | pKi [1] | further results
O=C(NS(=O)(=O)c1ccccc1)[C@H](Cc1c[nH]c2ccccc12)N1C(=O)/C(=C/c2ccc(-c3ccccc3)cc2)SC1=S | 6.14 | 
C[C@@H](C(=O)NS(=O)(=O)c1ccccc1)N1C(=O)/C(=C/c2ccc(-c3ccccc3)cc2)SC1=S | 5.62 | 
CSCC[C@@H](C(=O)NS(=O)(=O)c1ccccc1)N1C(=O)/C(=C/c2ccc(-c3ccccc3)cc2)SC1=S | 6.02 | 
O=C(NS(=O)(=O)c1ccc(Cl)c([N+](=O)[O-])c1)[C@H](Cc1ccccc1)N1C(=O)/C(=C/c2ccc(-c3ccc(Cl)cc3)cc2)SC1=S | 5.72 | 
O=C(NS(=O)(=O)c1ccc(Cl)c([N+](=O)[O-])c1)[C@H](Cc1ccccc1)N1C(=O)/C(=C/c2ccc(-c3ccc([N+](=O)[O-])cc3)cc2)SC1=S | 5.62 | 
COC(=O)c1ccc(-c2ccc(/C=C3\SC(=S)N([C@@H](Cc4ccccc4)C(=O)NS(=O)(=O)c4ccc(Cl)c([N+](=O)[O-])c4)C3=O)cc2)cc1 | 5.85 | 
O=C(NS(=O)(=O)c1ccc([N+](=O)[O-])cc1)[C@H](Cc1ccccc1)N1C(=O)/C(=C/c2ccc(-c3ccc([N+](=O)[O-])cc3)cc2)SC1=S | 6.10 | 
O=C(NS(=O)(=O)c1ccc(Cl)c([N+](=O)[O-])c1)[C@H](Cc1ccccc1)N1C(=O)/C(=C/c2ccc(-c3ccc(C(F)(F)F)cc3)cc2)SC1=S | 6.06 | 
O=C(NS(=O)(=O)c1ccc([N+](=O)[O-])cc1)[C@H](Cc1ccccc1)N1C(=O)/C(=C/c2ccc(-c3ccc(C(F)(F)F)cc3)cc2)SC1=S | 6.07 | 
O=C(NS(=O)(=O)c1ccc(Cl)c([N+](=O)[O-])c1)[C@H](Cc1ccc(Br)cc1)N1C(=O)/C(=C/c2ccc(-c3ccc([N+](=O)[O-])cc3)cc2)SC1=S | < 4.30 | 
O=C(NS(=O)(=O)c1ccc(Cl)c([N+](=O)[O-])c1)[C@H](Cc1ccc(Br)cc1)N1C(=O)/C(=C/c2ccc(-c3ccc(Cl)cc3)cc2)SC1=S | 6.15 | 
O=C(NS(=O)(=O)c1ccc([N+](=O)[O-])cc1)[C@H](Cc1ccc(Br)cc1)N1C(=O)/C(=C/c2ccc(-c3ccc(Cl)cc3)cc2)SC1=S | 6.15 | pKi [2]: 7.20; pIC50 (K562): 5.03; pIC50 (cells): 4.62; pKi (Bcl-2-like protein 1): 6.31; pIC50 (MDA-MB-231): 4.54
O=C(NS(=O)(=O)c1ccc(Cl)c([N+](=O)[O-])c1)[C@H](Cc1ccc(Br)cc1)N1C(=O)/C(=C/c2ccc(-c3ccc(C(F)(F)F)cc3)cc2)SC1=S | 5.92 | 
O=C(NS(=O)(=O)c1ccc([N+](=O)[O-])cc1)[C@H](Cc1ccc(Br)cc1)N1C(=O)/C(=C/c2ccc(-c3ccc(C(F)(F)F)cc3)cc2)SC1=S | 6.05 | 
O=C(NS(=O)(=O)c1ccc(Cl)c([N+](=O)[O-])c1)[C@H](Cc1c[nH]c2ccccc12)N1C(=O)/C(=C/c2ccc(-c3ccc(Cl)cc3)cc2)SC1=S | 5.25 | 
O=C(NS(=O)(=O)c1ccc(Cl)c([N+](=O)[O-])c1)[C@H](Cc1c[nH]c2ccccc12)N1C(=O)/C(=C/c2ccc(-c3ccc([N+](=O)[O-])cc3)cc2)SC1=S | 6.12 | 
O=C(NS(=O)(=O)c1ccc([N+](=O)[O-])cc1)[C@H](Cc1c[nH]c2ccccc12)N1C(=O)/C(=C/c2ccc(-c3ccc(C(F)(F)F)cc3)cc2)SC1=S | 6.12 | 
Cc1ccc(-c2ccc(/C=C3\SC(=S)N([C@@H](Cc4c[nH]c5ccccc45)C(=O)NS(=O)(=O)c4ccc([N+](=O)[O-])cc4)C3=O)cc2)cc1 | 6.14 | 
Cc1ccc(S(=O)(=O)NC(=O)[C@H](Cc2ccccc2)N2C(=O)/C(=C/c3ccc(-c4ccccc4)cc3)SC2=S)cc1 | 6.14 | pKi [2]: 6.60; pKi (Bcl-2-like protein 1): 6.18
Cc1cc2c(C(C)C)c(O)c(O)c(C=O)c2c(O)c1-c1c(C)cc2c(C(C)C)c(O)c(O)c(C=O)c2c1O [GOSSYPOL] |  | pIC50 (K562): 5.34; pIC50 (cells): 5.20; pIC50 (MDA-MB-231): 5.04

The remaining compounds from weak to strong by pKi [1], led by results:

pKi [1] | SMILES | further results
6.17 | O=C(NS(=O)(=O)c1ccc([N+](=O)[O-])cc1)[C@H](Cc1c[nH]c2ccccc12)N1C(=O)/C(=C/c2ccc(-c3ccc(Cl)cc3)cc2)SC1=S | 
6.18 | O=C(NS(=O)(=O)c1ccc([N+](=O)[O-])cc1)[C@H](Cc1ccccc1)N1C(=O)/C(=C/c2ccc(-c3ccc(Cl)cc3)cc2)SC1=S | 
6.20 | CC(C)[C@@H](C(=O)NS(=O)(=O)c1ccccc1)N1C(=O)/C(=C/c2ccc(-c3ccccc3)cc2)SC1=S | 
6.27 | O=C(NS(=O)(=O)c1ccccc1)[C@H](Cc1c[nH]c2ccccc12)N1C(=O)/C(=C/c2ccc(-c3ccc([N+](=O)[O-])cc3)cc2)SC1=S | 
6.27 | O=C(NS(=O)(=O)c1ccc(Cl)c([N+](=O)[O-])c1)[C@H](Cc1ccccc1)N1C(=O)/C(=C/c2ccc(-c3ccccc3)cc2)SC1=S | 
6.28 | O=C(NS(=O)(=O)c1ccccc1)[C@H](Cc1ccc(Br)cc1)N1C(=O)/C(=C/c2ccc(-c3ccccc3)cc2)SC1=S | 
6.29 | O=C(NS(=O)(=O)c1ccc(Cl)cc1)[C@H](Cc1ccccc1)N1C(=O)/C(=C/c2ccc(-c3ccccc3)cc2)SC1=S | 
6.33 | O=C(NS(=O)(=O)c1ccccc1)[C@H](Cc1ccc(Br)cc1)N1C(=O)/C(=C/c2ccc(-c3ccc(Cl)cc3)cc2)SC1=S | pKi [2]: 7.18; pIC50 (K562): 4.68; pIC50 (cells): < 4.30; pKi (Bcl-2-like protein 1): 6.41; pIC50 (MDA-MB-231): 4.54
6.33 | O=C(NS(=O)(=O)c1ccccc1)[C@H](Cc1c[nH]c2ccccc12)N1C(=O)/C(=C/c2ccc(-c3ccc(Cl)cc3)cc2)SC1=S | 
6.34 | O=C(NS(=O)(=O)c1ccccc1)[C@H](Cc1ccccc1)N1C(=O)/C(=C/c2ccc(-c3ccc([N+](=O)[O-])cc3)cc2)SC1=S | 
6.34 | COC(=O)c1ccc(-c2ccc(/C=C3\SC(=S)N([C@@H](Cc4ccc(Br)cc4)C(=O)NS(=O)(=O)c4ccccc4)C3=O)cc2)cc1 | 
6.35 | O=C(NS(=O)(=O)c1ccc([N+](=O)[O-])cc1)[C@H](Cc1ccccc1)N1C(=O)/C(=C/c2ccc(-c3ccccc3)cc2)SC1=S | 
6.38 | O=C(NS(=O)(=O)c1ccccc1)[C@H](Cc1ccc(Br)cc1)N1C(=O)/C(=C/c2ccc(-c3ccc([N+](=O)[O-])cc3)cc2)SC1=S | pKi [2]: 7.07; pIC50 (K562): < 4.30; pIC50 (cells): < 4.30; pKi (Bcl-2-like protein 1): 6.27; pIC50 (MDA-MB-231): 4.34
6.39 | CC[C@H](C)[C@@H](C(=O)NS(=O)(=O)c1ccccc1)N1C(=O)/C(=C/c2ccc(-c3ccccc3)cc2)SC1=S | 
6.44 | O=C(NS(=O)(=O)c1ccc([N+](=O)[O-])cc1)[C@H](Cc1ccc(Br)cc1)N1C(=O)/C(=C/c2ccc(-c3ccc([N+](=O)[O-])cc3)cc2)SC1=S | pKi [2]: 7.13; pIC50 (K562): 5.10; pIC50 (cells): 4.39; Ki (Bcl-2-like protein 1): Not Active; pIC50 (MDA-MB-231): 4.52
7.10 | O=C(NS(=O)(=O)c1ccc([N+](=O)[O-])cc1)[C@H](Cc1c[nH]c2ccccc12)N1C(=O)/C(=C/c2ccc(-c3ccc([N+](=O)[O-])cc3)cc2)SC1=S | 

From ChEMBL document CHEMBL3399977, “Design, synthesis and preliminary bioactivity studies of 2-thioxo-4-thiazolidinone derivatives as Bcl-2 inhibitors” (Bioorg Med Chem, 2015)
